# Laboratory results taken from patent publication US20100029575A1, “N-Oxides of Kappa Receptor Peptides” (priority 2006, published 2010).
# Values joined by “and” are separate entries in the source; they are usually repeats but may differ in a detail not shown here. Identical values can stand only once. Square brackets hold non-standard residues; d marks the D form. Peptide text beside a SMILES is read from it. * marks the point of attachment. dNle = CCCC[C@@H](N)C(=O)O; X1 = [O-][n+]1ccc(CN*)cc1
# Key:
# [1] = target: T1, Kappa Opioid Receptor (Mus musculus, UniProt P33534); assay: Functional second messenger assay, Gi-mediated inhibition of adenylate cyclase (cAMP, mouse brain); assay type: biochemical; details: for EC50: Kappa Opioid Receptor Activity EC50, cAMP; for Kappa Opioid Receptor Activity Pct Max: cAMP
# T1 construct: (cAMP, mouse brain); from tissue; host or cells: mouse brain
# [2] = target: T2, P450 3A4 (Homo sapiens, UniProt P08684); assay: P450 3A4/BQ inhibition; assay type: in vitro ADME
# Method: (§1) Enzyme assays are well known in the art and CYP450 enzymes from several species have been cloned. Although these cloned enzymes readily allow a particular candidate compound, e.g., a peptide, to be screened, natural sources of CYP450 enzymes, e.g., liver microsomes, are also useful for screening, as is well known in the art. Preferred analogs have a Ki for CYP450 enzymes of about 10 micromolar (uM) or more, whereas more preferred analogs have a Ki for […] of about 100 uM or more. For the purpose of identifying useful compounds of the invention, the IC50 is a useful approximation of the Ki.
# [3] = target: T3, P450 1A2 (Homo sapiens, UniProt P05177); assay: P450 1A2 inhibition; assay type: in vitro ADME
# T3 sequence (P05177 1-516): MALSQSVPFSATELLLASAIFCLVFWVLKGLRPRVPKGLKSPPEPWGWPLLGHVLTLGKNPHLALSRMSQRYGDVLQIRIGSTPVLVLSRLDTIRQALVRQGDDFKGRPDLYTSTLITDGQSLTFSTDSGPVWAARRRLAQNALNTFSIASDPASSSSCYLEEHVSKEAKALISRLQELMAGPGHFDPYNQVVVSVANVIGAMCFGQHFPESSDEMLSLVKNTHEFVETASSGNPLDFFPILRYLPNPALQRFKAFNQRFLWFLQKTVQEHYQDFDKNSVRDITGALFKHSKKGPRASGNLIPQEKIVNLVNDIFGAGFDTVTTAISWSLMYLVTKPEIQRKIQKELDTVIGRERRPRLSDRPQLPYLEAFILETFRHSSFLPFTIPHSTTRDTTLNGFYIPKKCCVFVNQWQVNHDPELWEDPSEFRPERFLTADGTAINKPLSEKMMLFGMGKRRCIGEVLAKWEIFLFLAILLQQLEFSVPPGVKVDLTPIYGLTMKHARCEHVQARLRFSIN
# Method: as §1
# [4] = target: T4, Mu Opioid Receptor (Rattus norvegicus, UniProt P33535); assay: Mu opioid receptor binding, competitive displacement of bound radioligand (rat brain membranes)
# T4 construct: from tissue; host or cells: rat brain membranes
# Text: (§2) Receptor assays are well known in the art and kappa opioid receptors from several species have been cloned, as have mu and delta opioid receptors. Kappa opioid receptors as well as mu and delta opioid receptors are classical, seven-transmembrane spanning, G-protein coupled receptors. Although these cloned receptors readily allow a particular candidate compound, e.g., a peptide, to be screened, natural sources of mammalian opioid receptors are also useful for screening, as is well known in the art (Dooley C T et al. Selective ligands for the mu, delta, and kappa opioid receptors identified from a single mixture based tetrapeptide positional scanning combinatorial library. J. Biol. Chem. 273:18848-56, 1998). Thus, screening against both kappa and mu opioid receptors, whether of recombinant or natural origin, may be carried out in order to determine the selectivity of the compound(s) for the kappa relative to the mu opioid receptor.
# (§3) Binding affinity refers to the strength of interaction between ligand and receptor. […] These studies can be performed using cloned kappa and mu opioid receptors expressed in stable transfected cell lines or naturally occurring opioid receptors from a receptor-enriched tissue source, as noted above. In these studies, the test compounds (unlabeled ligands) are used at increasing concentrations to displace the specific binding of a radiolabeled ligand that has high affinity and selectivity for the receptor studied. Tritiated U-69,593 and DAMGO can be used as ligands in kappa and mu opioid receptor studies, respectively. Both ligands are commercially available (NEN-Dupont). DAMGO is an acronym for [D-Ala^2, MePhe^4, Gly-ol^5]-enkephalin. The affinity of the radioligands is defined by the concentration of radioligand that results in half-maximal specific binding (KD) in saturation studies. The affinity of the test compound (unlabeled or cold ligand) is determined in competition binding studies by calculating the inhibitory constant (Ki) according to the following formula:
# (§4) where IC50=Concentration of the cold ligand that inhibits 50% of the specific binding of the radioligand
# (§5) F=free radioligand concentration
# (§6) KD=affinity of the radioligand determined in saturation studies.
# (§7) When performing these assays under specific conditions with relatively low concentrations of receptor, the calculated Ki for the test compound is a good approximation of its dissociation constant KD, which represents the concentration of ligand necessary to occupy one-half (50%) of the binding sites. […]
# (§8) These binding assays employing kappa opioid receptors and mu opioid receptors are straightforward to perform and can be readily carried out with large numbers of compounds to determine whether such compounds are kappa opioid receptor-selective and have high affinity. […]
# [5] = target: T2, P450 3A4; assay: P450 3A4/BFC inhibition; assay type: in vitro ADME
# Method: as §1
# [6] = target: P450 2C9 (Homo sapiens, UniProt P11712); assay: P450 2C9 inhibition; assay type: in vitro ADME
# Method: as §1
# [7] = target: T5, Kappa Opioid Receptor (Cavia porcellus, UniProt P41144); assay: Kappa opioid receptor binding, competitive displacement of bound radioligand (guinea pig brain membranes); details: for IC50: Kappa Opioid Receptor Binding IC50, guinea pig brain; for Kappa Opioid Receptor Binding Pct Max: guinea pig brain
# T5 construct: from tissue; host or cells: guinea pig brain membranes
# Text: as §2, §3, §4, §5, §6, §7, §8
# [8] = tested on: cytochrome P450 enzymes; assay: Cytochrome P450 enzyme activities; assay type: in vitro ADME; details: summary of Table 4
# Method: as §1
structure (smiles),measurement,setting,value
"CCCC[C@@H](NC(=O)[C@@H](Cc1ccccc1)NC(=O)[C@H](N)Cc1ccccc1)C(=O)N[C@H](CCCNC(=N)N)C(=O)NCc1cc[n+]([O-])cc1 [Peptide No. 1, H-D-Phe-D-Phe-D-Nle-D-Arg-NH-4-picolyl-N-oxide] (H-[dF][dF][dNle][dR]-X1)",EC50,[1]; Mean,0.42 nM
same,EC50,[1]; individual samples,0.3 nM and 0.57 nM
same,Kappa Opioid Receptor Activity Pct Max,[1]; Mean,101.43 Pct
same,Kappa Opioid Receptor Activity Pct Max,"[1]; individual samples, listed as Peptide 1",92.46 Pct and 110.41 Pct
same,P450 3A4/BQ Inhibition Pct Max,[2]; Mean,18 Pct
same,P450 3A4/BQ Inhibition IC50,[2]; individual samples,No Fit
same,P450 3A4/BQ Inhibition Pct Max,[2]; individual samples,15 Pct and 21 Pct
same,P450 1A2 Inhibition Pct Max,[3]; Mean,13 Pct
same,P450 1A2 Inhibition IC50,[3]; individual samples,No Fit
same,P450 1A2 Inhibition Pct Max,[3]; individual samples,15 Pct and 10 Pct
same,Mu Opioid Receptor Binding IC50,[4]; rat brain,too high to determined
same,maximal binding inhibition at MOR,[4]; rat brain membranes,15.5%
same,Mu Opioid Receptor Binding Pct Max,"[4]; rat brain, Sample 1",15.5 Pct
same,Mu Opioid Receptor Binding IC50,"[4]; rat brain, listed as Peptide1",No Fit
same,P450 3A4/BFC Inhibition Pct Max,[5]; Mean,26 Pct
same,P450 3A4/BFC Inhibition IC50,[5]; individual samples,No Fit
same,P450 3A4/BFC Inhibition Pct Max,[5]; individual samples,22 Pct and 17 Pct and 40 Pct
same,IC50,[6],> 10000 nM
same,P450 2C9 Inhibition Pct Max,[6]; Mean,26 Pct
same,P450 2C9 Inhibition Pct Max,[6]; individual samples,21 Pct and 31 Pct
same,IC50,[7]; Mean,~6.3 nM and 6.3 nM
same,IC50,[7]; individual samples,2.6 nM and 9.4 nM and 4.2 nM
same,Kappa Opioid Receptor Binding Pct Max,[7]; Mean,109.4 Pct
same,Kappa Opioid Receptor Binding Pct Max,"[7]; individual samples, listed as Peptide1",105.2 Pct and 117.3 Pct and 105.6 Pct
same,inhibitory activity on several cytochrome P450 enzyme activities,[8],absence of significant inhibitory activity
